Measured values from patent US6737383B1, “Herbicidal oxadiazolidines” (priority 1999, dated 2004).

What was measured:
[1] = system: bedstraw; experiment: Test B pre/postemergence bedstraw; type: in vivo, Galium aparine
How it was run: (§1)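 Herbicidal effect was estimated by eye on a ten-point control scale after plants spent twelve to sixteen days in a greenhouse following soil or foliar treatment. Foliar sprays targeted plants at one to four leaves; all doses were formulated in a non-phytotoxic solvent with surfactant.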

[2] = system: blackgrass; experiment: Test B pre/postemergence blackgrass; type: in vivo, Alopecurus myosuroides
How it was run: as §1

[3] = system: surinam grass; experiment: Test B pre/postemergence surinam grass; type: in vivo, Brachiaria decumbens
How it was run: as §1

[4] = system: cocklebur; experiment: Test B pre/postemergence cocklebur; type: in vivo, Xanthium strumarium; conditions: for Cocklebur plant response rating: scale of 0 to 10 where 0 is no effect and 10 is complete control
How it was run: as §1

[5] = system: corn; experiment: Test B pre/postemergence corn; type: in vivo, Zea mays; conditions: for Corn plant response rating: scale of 0 to 10 where 0 is no effect and 10 is complete control
How it was run: as §1

[6] = system: crabgrass; experiment: Test B pre/postemergence crabgrass; type: in vivo, Digitaria sanguinalis; conditions: for Crabgrass plant response rating: scale of 0 to 10 where 0 is no effect and 10 is complete control
How it was run: as §1

[7] = system: giant foxtail; experiment: Test B pre/postemergence giant foxtail; type: in vivo, Setaria faberii; conditions: for Giant foxtail plant response rating: scale of 0 to 10 where 0 is no effect and 10 is complete control
How it was run: as §1

[8] = system: morningglory; experiment: Test B pre/postemergence morningglory; type: in vivo, Ipomoea hederacea; conditions: for Morningglory plant response rating: scale of 0 to 10 where 0 is no effect and 10 is complete control
How it was run: as §1

[9] = system: pigweed; experiment: Test B pre/postemergence pigweed; type: in vivo, Amaranthus retroflexus; conditions: for Redroot pigweed plant response rating: scale of 0 to 10 where 0 is no effect and 10 is complete control
How it was run: as §1

[10] = system: rape; experiment: Test B pre/postemergence rape; type: in vivo, Brassica napus; conditions: for Rape plant response rating: scale of 0 to 10 where 0 is no effect and 10 is complete control
How it was run: as §1

[11] = system: soybean; experiment: Test B pre/postemergence soybean; type: in vivo, Glycine max; conditions: for Soybean plant response rating: scale of 0 to 10 where 0 is no effect and 10 is complete control
How it was run: as §1

[12] = system: sugar beet; experiment: Test B pre/postemergence sugar beet; type: in vivo, Beta vulgaris; conditions: for Sugarbeets plant response rating: scale of 0 to 10 where 0 is no effect and 10 is complete control
How it was run: as §1

[13] = system: velvetleaf; experiment: Test B pre/postemergence velvetleaf; type: in vivo, Abutilon theophrasti; conditions: for Velvetleaf plant response rating: scale of 0 to 10 where 0 is no effect and 10 is complete control
How it was run: as §1

[14] = system: wheat; experiment: Test B pre/postemergence wheat; type: in vivo, Triticum aestivum; conditions: for Wheat plant response rating: scale of 0 to 10 where 0 is no effect and 10 is complete control
How it was run: as §1

[15] = system: wild oat; experiment: Test B pre/postemergence wild oat; type: in vivo, Avena fatua; conditions: for Wild oats plant response rating: scale of 0 to 10 where 0 is no effect and 10 is complete control
How it was run: as §1

[16] = system: purple nutsedge; experiment: Test B pre/postemergence purple nutsedge; type: in vivo, Cyperus rotundus; conditions: for Nutsedge plant response rating: scale of 0 to 10 where 0 is no effect and 10 is complete control
How it was run: as §1

[17] = system: rice; experiment: Test B flood test rice; type: in vivo, Oryza sativa
How it was run: (§2)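 Each value is a visual injury score relative to controls, with 10 meaning complete control and 0 no effect. Evaluation took place twelve to sixteen days after the 2-leaf-stage plants were treated and kept in the greenhouse.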

[18] = system: smallflower flatsedge; experiment: Test B flood test smallflower flatsedge; type: in vivo, Cyperus difformis
How it was run: as §2

[19] = system: duck salad; experiment: Test B flood test duck salad; type: in vivo, Heteranthera limosa
How it was run: as §2

[20] = system: bamyardgrass; experiment: Test B flood test barnyardgrass; type: in vivo, Echinochloa crus-galli
How it was run: as §2

[21] = Postemergence, Rate 125 g/ha, scale 0 to 10, 0 is no effect, 10 is complete control
[22] = Preemergence, Rate 62 g/ha, scale 0 to 10 (0 no effect, 10 complete control)
[23] = Preemergence, Rate 250 g/ha, scale of 0 to 10 where 0 is no effect and 10 is complete control
[24] = Preemergence, Rate 500 g/ha, scale of 0 to 10 where 0 is no effect and 10 is complete control
[25] = Rate 62 g/ha, Postemergence, scale of 0 to 10 where 0 is no effect and 10 is complete control
[26] = Rate 250 g/ha, Postemergence, scale of 0 to 10 where 0 is no effect and 10 is complete control
[27] = Rate 500 g/ha, Postemergence, scale 0 to 10, 0 no effect, 10 complete control
[28] = Postemergence (flood test), Rate 125 g/ha, scale 0 to 10, 0 is no effect, 10 is complete control
[29] = Rate 62 g/ha, Postemergence (flood test species), scale of 0 to 10 where 0 is no effect and 10 is complete control
[30] = Rate 500 g/ha, listed under Postemergence (flood test species), scale 0 to 10, 0 no effect, 10 complete control

CC(C)C(C)n1c(=O)on(C(=O)N(c2ccccc2)C(C)C)c1=O (centres unmarked) [Compound 355]
Plant response rating, Bedstraw [1, 21]: 0
Plant response rating, Bedstraw [1, 22]: 0
Bedstraw plant response rating [1, 23]: 0
Bedstraw plant response rating [1, 24]: 9
Bedstraw plant response rating [1, 25]: 0
Plant response rating, Bedstraw [1, 26]: 0
Plant response rating, Bedstraw [1, 27]: 0
Plant response rating, Blackgrass [2, 21]: 3
Plant response rating, Blackgrass [2, 22]: 2
Blackgrass plant response rating (0 to 10 scale) ([2]; Preemergence, Rate 125 g/ha): 4
Blackgrass plant response rating [2, 23]: 5
Blackgrass plant response rating [2, 24]: 10
Blackgrass plant response rating [2, 25]: 3
Plant response rating, Blackgrass [2, 26]: 6
Plant response rating, Blackgrass [2, 27]: 6
Plant response rating, B. signalgrass [3, 21]: 0
Plant response rating, B. signalgrass [3, 22]: 0
B. signalgrass plant response rating (0 to 10 scale, 0 is no effect, 10 is complete control) ([3]; Preemergence, Rate 125 g/ha): 2
B. signalgrass plant response rating [3, 23]: 3
B. signalgrass plant response rating [3, 24]: 6
B. signalgrass plant response rating [3, 25]: 0
Plant response rating, B. signalgrass [3, 26]: 0
Plant response rating, B. signalgrass [3, 27]: 2
Plant response rating, Cocklebur [4, 21]: 0
Plant response rating, Cocklebur [4, 22]: 0
Cocklebur plant response rating (0 to 10 scale) ([4]; Preemergence, Rate 125 g/ha): 0
Cocklebur plant response rating ([4]; Preemergence, Rate 250 g/ha): 0
Cocklebur plant response rating ([4]; Rate 62 g/ha, Postemergence): 0
Plant response rating, Cocklebur [4, 27]: 4
Plant response rating, Corn [5, 21]: 0
Plant response rating, Corn [5, 22]: 0
Corn plant response rating (0 to 10 scale) ([5]; Preemergence, Rate 125 g/ha): 0
Corn plant response rating ([5]; Preemergence, Rate 250 g/ha): 3
Corn plant response rating ([5]; Preemergence, Rate 500 g/ha): 4
Corn plant response rating ([5]; Rate 62 g/ha, Postemergence): 0
Plant response rating, Corn [5, 27]: 0
Plant response rating, Crabgrass [6, 21]: 0
Plant response rating, Crabgrass [6, 22]: 4
Crabgrass plant response rating (0 to 10 scale) ([6]; Preemergence, Rate 125 g/ha): 10
Crabgrass plant response rating ([6]; Preemergence, Rate 250 g/ha): 10
Crabgrass plant response rating ([6]; Preemergence, Rate 500 g/ha): 10
Crabgrass plant response rating ([6]; Rate 62 g/ha, Postemergence): 0
Plant response rating, Crabgrass [6, 27]: 2
Plant response rating, Giant foxtail [7, 21]: 2
Plant response rating, Giant foxtail [7, 22]: 10
Giant foxtail plant response rating (0 to 10 scale) ([7]; Preemergence, Rate 125 g/ha): 10
Giant foxtail plant response rating ([7]; Preemergence, Rate 250 g/ha): 10
Giant foxtail plant response rating ([7]; Preemergence, Rate 500 g/ha): 10
Giant foxtail plant response rating ([7]; Rate 62 g/ha, Postemergence): 2
Plant response rating, Giant foxtail [7, 27]: 8
Plant response rating, Morningglory [8, 21]: 5
Plant response rating, Morningglory [8, 22]: 0
Morningglory plant response rating (0 to 10 scale) ([8]; Preemergence, Rate 125 g/ha): 0
Morningglory plant response rating ([8]; Preemergence, Rate 250 g/ha): 0
Morningglory plant response rating ([8]; Preemergence, Rate 500 g/ha): 2
Morningglory plant response rating ([8]; Rate 62 g/ha, Postemergence): 2
Plant response rating, Morningglory [8, 27]: 8
Plant response rating, Redroot pigweed [9, 21]: 0
Redroot pigweed plant response rating (0 to 10 scale) ([9]; Preemergence, Rate 125 g/ha): 7
Redroot pigweed plant response rating ([9]; Preemergence, Rate 250 g/ha): 10
Redroot pigweed plant response rating ([9]; Preemergence, Rate 500 g/ha): 10
Redroot pigweed plant response rating ([9]; Rate 62 g/ha, Postemergence): 0
Plant response rating, Redroot pigweed [9, 27]: 3
Plant response rating, Rape [10, 21]: 0
Plant response rating, Rape [10, 22]: 0
Rape plant response rating (0 to 10 scale) ([10]; Preemergence, Rate 125 g/ha): 0
Rape plant response rating ([10]; Preemergence, Rate 250 g/ha): 0
Rape plant response rating ([10]; Preemergence, Rate 500 g/ha): 5
Rape plant response rating ([10]; Rate 62 g/ha, Postemergence): 0
Plant response rating, Rape [10, 27]: 0
Plant response rating, Soybean [11, 21]: 2
Plant response rating, Soybean [11, 22]: 0
Soybean plant response rating (0 to 10 scale) ([11]; Preemergence, Rate 125 g/ha): 0
Soybean plant response rating ([11]; Preemergence, Rate 250 g/ha): 0
Soybean plant response rating ([11]; Preemergence, Rate 500 g/ha): 0
Soybean plant response rating ([11]; Rate 62 g/ha, Postemergence): 1
Plant response rating, Soybean [11, 27]: 3
Plant response rating, Sugarbeets [12, 21]: 0
Plant response rating, Sugarbeets [12, 22]: 0
Sugarbeets plant response rating (0 to 10 scale) ([12]; Preemergence, Rate 125 g/ha): 0
Sugarbeets plant response rating ([12]; Preemergence, Rate 250 g/ha): 2
Sugarbeets plant response rating ([12]; Preemergence, Rate 500 g/ha): 3
Sugarbeets plant response rating ([12]; Rate 62 g/ha, Postemergence): 0
Plant response rating, Sugarbeets [12, 27]: 0
Plant response rating, Velvetleaf [13, 21]: 0
Plant response rating, Velvetleaf [13, 22]: 0
Velvetleaf plant response rating (0 to 10 scale) ([13]; Preemergence, Rate 125 g/ha): 2
Velvetleaf plant response rating ([13]; Preemergence, Rate 250 g/ha): 3
Velvetleaf plant response rating ([13]; Preemergence, Rate 500 g/ha): 5
Velvetleaf plant response rating ([13]; Rate 62 g/ha, Postemergence): 0
Plant response rating, Velvetleaf [13, 27]: 2
Plant response rating, Wheat [14, 21]: 2
Plant response rating, Wheat [14, 22]: 0
Wheat plant response rating (0 to 10 scale) ([14]; Preemergence, Rate 125 g/ha): 0
Wheat plant response rating ([14]; Preemergence, Rate 250 g/ha): 0
Wheat plant response rating ([14]; Preemergence, Rate 500 g/ha): 2
Wheat plant response rating ([14]; Rate 62 g/ha, Postemergence): 0
Plant response rating, Wheat [14, 27]: 3
Plant response rating, Wild oats [15, 21]: 3
Plant response rating, Wild oats [15, 22]: 0
Wild oats plant response rating (0 to 10 scale) ([15]; Preemergence, Rate 125 g/ha): 0
Wild oats plant response rating ([15]; Preemergence, Rate 250 g/ha): 0
Wild oats plant response rating ([15]; Preemergence, Rate 500 g/ha): 9
Wild oats plant response rating ([15]; Rate 62 g/ha, Postemergence): 0
Plant response rating, Wild oats [15, 27]: 5
Plant response rating, Nutsedge [16, 21]: 0
Plant response rating, Nutsedge [16, 22]: 0
Nutsedge plant response rating (0 to 10 scale) ([16]; Preemergence, Rate 125 g/ha): 0
Nutsedge plant response rating ([16]; Preemergence, Rate 250 g/ha): 0
Nutsedge plant response rating ([16]; Preemergence, Rate 500 g/ha): 0
Nutsedge plant response rating ([16]; Rate 62 g/ha, Postemergence): 0
Plant response rating, Nutsedge [16, 27]: 0
Plant response rating, Rice [17, 28]: 0
Rice plant response rating [17, 29]: 0
Plant response rating, Rice [17, 30]: 0
Plant response rating, S. Flatsedge [18, 28]: 2
S. Flatsedge plant response rating [18, 29]: 0
Plant response rating, S. Flatsedge [18, 30]: 8
Plant response rating, Ducksalad [19, 28]: 0
Ducksalad plant response rating [19, 29]: 0
Plant response rating, Ducksalad [19, 30]: 0
Plant response rating, Barnyardgrass [20, 28]: 8
Barnyardgrass plant response rating [20, 29]: 1
Plant response rating, Barnyardgrass ([20]; Rate 250 g/ha, Postemergence (flood test species), scale of 0 to 10 where 0 is no effect and 10 is complete control): 8
Plant response rating, Barnyardgrass [20, 30]: 8
